Experimental data taken from patent US20230346735A1, “Nutritional Composition Comprising Carnitine and Method for Treating or Preventing an Infection in a Mammal” (priority 2020, published 2023).

Columns and labels:
[1] = test system: ACE-1; test: ACE-1 protein and mRNA in rat lung tissue; type: in vivo; details: exercised rats
Description: After a week of the adaptation period, the rats were divided into eight equal groups containing seven rats each. The initial body weights of the rats were similar in all the groups (214.53 grams ± 4.67; P > 0.05).
Groups 1 and 2 were not subjected to an exercise routine. Groups 3-8 were subjected to an exercise regimen consisting of a week training period with an incremental exercise capacity described below. After the week training period the exercise regimen followed was each rat in Groups 3-8 were subjected to 6 weeks of running at 25 m/min during 45 min […]. […] These correspond to 0, 250, 500, 1000, 2000 and 4000 mg per day for humans, respectively.
To determine the protein accumulation in the liver, muscle and lung samples, a Western Blotting test was used. Each of the tissue samples of the same group were pooled, homogenized, and sonicated in lysis buffer supplemented with 1X protease and phosphatase inhibitor cocktail (#5872, Cell Signaling). Total protein content was detected with Qubit 2.0 Fluorometer according to the manufacturer’s protocol (Invitrogen, Life Technologies Corporation, Carlsbad, CA, USA). […] Protein levels were analyzed densitometrically using an image analysis system (Image J; National Institute of Health, Bethesda, MD, USA), corrected with values determined on β-actin blots and expressed as relative values compared with the control group. […]

[2] = test system: ACE-1; test: Rat plasma serum ELISA, ACE-1; type: in vivo; details: exercised rats, FIG. 5A
[3] = test system: TMPRSS2; test: Human study, serum ELISA, TMPRSS2; type: in vivo; details: 2 g daily, 5 weeks, 48 hours after exercise challenge, versus placebo
Experimental: A human study was run with a total of 80 healthy male and female subjects ranging from 21 to 65 years of age, who were active (i.e. 30 minutes per day of moderate activity, 3 days per week) are randomized into two groups. […] Seventy-three subjects completed the trial and biomarker data were analyzed from the sera of the 73 completers. Sera were collected for analysis of C-Reactive Protein (CRP), ACE 1, ACE 2, TMPRSS 2, the Tumor Necrosis Factor alpha (TNF-alpha), and Furin at baseline in the beginning of the trial, at week 5 and 48 hr after an exercise challenge as described (Clinicaltrials.gov NCT04420377). The exercise challenge serves as surrogate to the inflammation stimulus.
To obtain human sera, venous blood was extracted by venipuncture of the antecubital vein using a 21-gauge syringe and collected into a 10 mL EDTA vacutainer tube (BD Vacutainer®, Becton, Dickinson and Company, Franklin Lakes, NJ) by a certified phlebotomist. […] Human ACE-1, ACE-2, TMPRSS2, Furin, CRP and TNF-alpha protein levels were assessed using commercially available ELISA kits, according the manufacturer recommendations, ACE-1 (R&D systems Inc., Minneapolis, MN, USA), ACE-2 (RayBiotech inc., Peachtree Corners, GA), TMPRSS2 (Novus Biologicals, Littleton, CO), CRP (R&D Systems Inc., Minneapolis, MN), TNF-alpha (Novus Biologicals, Littleton, CO), and Furin (Sigma Aldrich, St. Louis, MO). […]

[4] = test system: ACE-1; test: ACE-1 mRNA expression in Calu-3, RT real-time PCR; type: cell-based, human; details: Calu-3, 50 to 1,000 uM, 24 hr pre-treatment
[5] = test system: TMPRSS2; test: TMPRSS2 mRNA expression in Calu-3, RT real-time PCR; type: cell-based, human; details: 24 hr
Experimental: To quantify the human gene expression, Calu-3 seeded in a 12-well plate (220,000 cells) were stimulated with 100 uM, 500 uM and 1000 uM Carnitine alone for 24 h. RNA was extracted using TRIzol (Qiagen) as per standard protocol and total RNA was reverse transcribed using SuperScript II RT (Invitrogen). Expression levels of ACE-2 and TMPRSS2 were evaluated by SYBR real-time PCR using gene-specific primers as previously reported (Ma et al., Eye 2020;34:1212). GAPDH was used as an internal normalizer. […] Fold change in expression relative to that in untreated cells was determined using the standard ddCt method.

## C[N+](C)(C)C[C@H](O)CC(=O)[O-] [L-carnitine]
[1]; compared to the exercise control, without reaching the control levels
  ACE-1 mRNA levels: increased
[1]; lung, FIG. 6A, significantly lower than the baseline control levels
  ACE-1 protein levels: increase
[2]
  serum ACE-1: near normal levels
[3]
  TMPRSS2 serum levels: significant decrease
[4]
  ACE-1 mRNA levels: didn’t not change
[5]; Calu-3, 500 uM
  TMPRSS2 mRNA decrease: at least 75%
[5]; Calu-3, between 50-100 uM
  TMPRSS2 mRNA increase: 1.5-4 fold
